In US20240228504A1, “SUBSTITUTED TRICYCLIC AMIDES, ANALOGUES THEREOF, AND METHODS USING SAME” (Arbutus Biopharma Corporation, priority 2020, published 2024):

What follows are compounds tested on HBV rcDNA in HepDE19 cells (assay: HepDE19 assay with bDNA quantitation of HBV rcDNA). Settings: HepDE19 assay, inhibition of rcDNA formation, bDNA quantitation; read-out: DE-19bDNA EC50.
Assay type: cell-based, hepatitis B virus
CN(C(=O)c1cc(F)c(Br)c(F)c1)C1CNCc2[nH]c(=O)c3cc(F)ccc3c21 (single isomer, unassigned) [Compound 171, 4-Bromo-3,5-difluoro-N-(8-fluoro-6-oxo-1,2,3,4,5,6-hexahydrobenzo[c][1,7]naphthyridin-1-yl)-N-methylbenzamide] was tested, and the EC50 was 510 nM.
CN(C(=O)C1Nc2ccccc2C1(C)C)C1COCc2[nH]c(=O)c3cc(F)c(F)cc3c21 (stereo not drawn) [Compound 59, N-(8,9-Difluoro-6-oxo-1,4,5,6-tetrahydro-2H-pyrano[3,4-c]isoquinolin-1-yl)-N,3,3-trimethylindoline-2-carboxamide] gave an EC50 of 22000 nM.
CN(C(=O)c1cc2c(F)cccn2c1)C1CSCc2[nH]c(=O)c3cc(F)c(F)cc3c21 (single isomer, unassigned) [Compound 103, N-(8,9-Difluoro-6-oxo-1,4,5,6-tetrahydro-2H-thiopyrano[3,4-c]isoquinolin-1-yl)-8-fluoro-N-methylindolizine-2-carboxamide] gave an EC50 of 2500 nM.
For CN(C(=O)c1cc2cc(F)ccc2[nH]1)C1COCc2[nH]c(=O)c3cc(F)c(F)cc3c21 (single isomer, unassigned) [Compound 27, N-(8,9-Difluoro-6-oxo-1,4,5,6-tetrahydro-2H-pyrano[3,4-c]isoquinolin-1-yl)-5-fluoro-N-methyl-1H-indole-2-carboxamide], the EC50 was 370 nM.
With CN(C(=O)c1cc2c(C(F)F)c(F)ccc2[nH]1)C1CNCc2[nH]c(=O)c3cc(F)c(F)cc3c21 (single isomer, unassigned) [Compound 265, N-(8,9-Difluoro-6-oxo-1,2,3,4,5,6-hexahydrobenzo[c][1,7]naphthyridin-1-yl)-4-(difluoromethyl)-5-fluoro-N-methyl-1H-indole-2-carboxamide] the EC50 was 20 nM.
For CN(C(=O)c1cc2c(C(F)F)cc(F)cc2[nH]1)C1COCc2[nH]c(=O)c3cc(F)ccc3c21 (single isomer, unassigned) [Compound 238, 4-(Difluoromethyl)-6-fluoro-N-(8-fluoro-6-oxo-1,4,5,6-tetrahydro-2H-pyrano[3,4-c]isoquinolin-1-yl)-N-methyl-1H-indole-2-carboxamide], the EC50 was 1400 nM.
CN(C(=O)c1cc2c(C(F)F)c(F)ccc2[nH]1)C1CNCc2[nH]c(=O)c3cc(F)ccc3c21 (single isomer, unassigned) [Compound 272, 4-(Difluoromethyl)-5-fluoro-N-(8-fluoro-6-oxo-1,2,3,4,5,6-hexahydrobenzo[c][1,7]naphthyridin-1-yl)-N-methyl-1H-indole-2-carboxamide] showed an EC50 of 70 nM.
For CN(C(=O)c1cc2c(F)cccc2[nH]1)C1COCc2[nH]c(=O)c3cc(F)ccc3c21 (single isomer, unassigned) [Compound 20, 4-Fluoro-N-(8-fluoro-6-oxo-1,4,5,6-tetrahydro-2H-pyrano[3,4-c]isoquinolin-1-yl)-N-methyl-1H-indole-2-carboxamide], the EC50 was 20 nM.
For CN(C(=O)c1ccc(-c2cccc(F)c2)cc1)C1CNCc2[nH]c(=O)c3cc(F)c(F)cc3c21 (single isomer, unassigned) [Compound 301, N-(8,9-Difluoro-6-oxo-1,2,3,4,5,6-hexahydrobenzo[c][1,7]naphthyridin-1-yl)-3′-fluoro-N-methyl-[1,1′-biphenyl]-4-carboxamide], the EC50 was 24500 nM.
In the case of CN(C(=O)C1Cc2cc(F)ccc2N1)C1COCc2[nH]c(=O)c3cc(F)c(F)cc3c21 (single isomer, unassigned) [Compound 7, N-(8,9-Difluoro-6-oxo-1,4,5,6-tetrahydro-2H-pyrano[3,4-c]isoquinolin-1-yl)-5-fluoro-N-methylindoline-2-carboxamide], the EC50 is reported as 10 nM.
Work on CN(C(=O)c1cc2c(C(F)F)cccc2[nH]1)C1COCc2[nH]c(=O)c3cc(F)ccc3c21 (single isomer, unassigned) [Compound 182, 4-(Difluoromethyl)-N-(8-fluoro-6-oxo-1,4,5,6-tetrahydro-2H-pyrano[3,4-c]isoquinolin-1-yl)-N-methyl-1H-indole-2-carboxamide] yielded an EC50 of 750 nM.

Same assay, conditions: Hepatitis B virus, HepDE19, HepDE19 assay, inhibition of rcDNA formation, bDNA quantitation; read-out: DE-19bDNA EC50
With COc1cccc2[nH]c(C(=O)N(C)[C@@H]3COCc4[nH]c(=O)c5cc(F)c(F)cc5c43)cc12 [Compound 329, (S)-N-(8,9-Difluoro-6-oxo-1,4,5,6-tetrahydro-2H-pyrano[3,4-c]isoquinolin-1-yl)-4-methoxy-N-methyl-1H-indole-2-carboxamide] the EC50 was 260 nM.
Compound CN(C(=O)c1cc2scc(Cl)c2[nH]1)[C@@H]1COCc2[nH]c(=O)c3cc(F)c(F)cc3c21 [Compound 350, (S)-3-chloro-N-(8,9-difluoro-6-oxo-1,4,5,6-tetrahydro-2H-pyrano[3,4-c]isoquinolin-1-yl)-N-methyl-4H-thieno[3,2-b]pyrrole-5-carboxamide] has an EC50 of 70 nM.
For CN(C(=O)c1cc2cc(F)c(C(F)F)cc2[nH]1)[C@@H]1CCCc2[nH]c(=O)c3cc(F)ccc3c21 [Compound 479, (R)-6-(difluoromethyl)-5-fluoro-N-(8-fluoro-6-oxo-1,2,3,4,5,6-hexahydrophenanthridin-1-yl)-N-methyl-1H-indole-2-carboxamide], the EC50 was 40 nM.
Compound CN(C(=O)c1cc2cc(Cl)ccc2[nH]1)[C@@H]1COCc2[nH]c(=O)c3cc(F)c(F)cc3c21 [Compound 325, (S)-5-chloro-N-(8,9-Difluoro-6-oxo-1,4,5,6-tetrahydro-2H-pyrano[3,4-c]isoquinolin-1-yl)-N-methyl-1H-indole-2-carboxamide] has an EC50 of 20 nM.
CN(C(=O)c1cc2cc(F)c(F)cc2[nH]1)[C@@H]1COCc2nc(OCCO)c3cc(F)c(F)cc3c21 [Compound 317, (S)-N-(8,9-Difluoro-6-(2-hydroxyethoxy)-1,4-dihydro-2H-pyrano[3,4-c]isoquinolin-1-yl)-5,6-difluoro-N-methyl-1H-indole-2-carboxamide] showed an EC50 of 10 nM.
CN(C(=O)c1ccn2cccc2c1)[C@@H]1COCc2[nH]c(=O)c3cc(F)c(F)cc3c21 [Compound 228, (S)-N-(8,9-Difluoro-6-oxo-1,4,5,6-tetrahydro-2H-pyrano[3,4-c]isoquinolin-1-yl)-N-methylindolizine-7-carboxamide] gave an EC50 of 60 nM.
In the case of CN(C(=O)c1cc2n(c1)CCCC2)[C@@H]1COCc2[nH]c(=O)c3cc(F)c(F)cc3c21 [Compound 242, (S)-N-(8,9-Difluoro-6-oxo-1,4,5,6-tetrahydro-2H-pyrano[3,4-c]isoquinolin-1-yl)-N-methyl-5,6,7,8-tetrahydroindolizine-2-carboxamide], the EC50 is reported as 110 nM.
CN(C(=O)c1cc(F)cc(Oc2ccccc2)c1)[C@@H]1COCc2[nH]c(=O)c3cc(F)c(F)cc3c21 [Compound 303, (S)-N-(8,9-Difluoro-6-oxo-1,4,5,6-tetrahydro-2H-pyrano[3,4-c]isoquinolin-1-yl)-3-fluoro-N-methyl-5-phenoxybenzamide] showed an EC50 of 6700 nM.
CN(C(=O)c1cc2c(Br)cncc2[nH]1)[C@@H]1COCc2[nH]c(=O)c3cc(F)c(F)cc3c21 [Compound 312, (S)-4-Bromo-N-(8,9-difluoro-6-oxo-1,4,5,6-tetrahydro-2H-pyrano[3,4-c]isoquinolin-1-yl)-N-methyl-1H-pyrrolo[2,3-c]pyridine-2-carboxamide] was tested, and the EC50 was 30 nM.
In the case of CN(C(=O)c1cnc(C(F)(F)F)[nH]1)[C@@H]1COCc2[nH]c(=O)c3cc(F)c(F)cc3c21 [Compound 225, (S)-N-(8,9-Difluoro-6-oxo-1,4,5,6-tetrahydro-2H-pyrano[3,4-c]isoquinolin-1-yl)-N-methyl-2-(trifluoromethyl)-1H-imidazole-5-carboxamide], the EC50 is reported as 13000 nM.
